Test results as given in ChEMBL document CHEMBL1201862, “PubChem BioAssay data set” (2004).
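Values below derive from 48-hour exposures of cells grown in 96-well plates, with endpoints linearly interpolated between the two concentrations bracketing the appropriate inhibition level. GI50 = concentration required for 50% inhibition of growth.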 The source made the active and inactive calls. Cut-off read from the data, not from the text of the source: active = GI50 up to about 1.1 µM and inactive = higher.

Legend:
Test in all cases: growth of human tumour cells (NCI), 48 h
UO-31 = test system: UO-31
NCI-H522 = test system: NCI-H522
M14 = test system: M14
T47D = test system: T47D
CCRF-CEM = test system: CCRF-CEM
RXF 393 = test system: RXF 393
SF-295 = test system: SF-295
HCC 2998 = test system: HCC 2998
RPMI-8226 = test system: RPMI-8226
NCI/ADR-RES = test system: NCI/ADR-RES
SK-OV-3 = test system: SK-OV-3
HT-29 = test system: HT-29
ACHN = test system: ACHN
SK-MEL-5 = test system: SK-MEL-5
TK-10 = test system: TK-10
MDA-MB-231 = test system: MDA-MB-231
MCF7 = test system: MCF7
SK-MEL-28 = test system: SK-MEL-28
MDA-N = test system: MDA-N

Measured: GI50

CC(C)(C)COS(=O)OCC(C)(C)C
inactive: UO-31 > 100 µM | NCI-H522 > 100 µM | M14 > 100 µM | T47D > 100 µM | CCRF-CEM > 100 µM | RXF 393 > 100 µM | SF-295 > 100 µM | HCC 2998 > 100 µM | RPMI-8226 > 100 µM | NCI/ADR-RES > 100 µM | SK-OV-3 > 100 µM | HT-29 > 100 µM | ACHN > 100 µM | SK-MEL-5 > 100 µM | TK-10 > 100 µM | MDA-MB-231 > 100 µM | MCF7 > 100 µM | SK-MEL-28 > 100 µM | MDA-N > 100 µM

Cc1ccc(S(=O)(=O)NC(=O)NCC(=O)NCC(=O)O)cc1
inactive: UO-31 > 100 µM | NCI-H522 > 100 µM | M14 > 100 µM | T47D > 100 µM | CCRF-CEM > 100 µM | RXF 393 > 100 µM | SF-295 > 100 µM | HCC 2998 > 100 µM | RPMI-8226 > 100 µM | NCI/ADR-RES > 100 µM | SK-OV-3 > 100 µM | HT-29 > 100 µM | ACHN > 100 µM | SK-MEL-5 > 100 µM | TK-10 > 100 µM | MDA-MB-231 > 100 µM | MCF7 > 100 µM | SK-MEL-28 > 100 µM | MDA-N > 100 µM

O=C1c2ccccc2C(=O)N1CCCCNOCCCN1C(=O)c2ccccc2C1=O
inactive: UO-31 > 100 µM | NCI-H522 > 100 µM | M14 > 100 µM | T47D > 100 µM | CCRF-CEM > 100 µM | RXF 393 > 100 µM | SF-295 > 100 µM | HCC 2998 > 100 µM | RPMI-8226 > 100 µM | NCI/ADR-RES > 100 µM | SK-OV-3 > 100 µM | HT-29 > 100 µM | ACHN > 100 µM | SK-MEL-5 > 100 µM | TK-10 > 100 µM | MDA-MB-231 > 100 µM | MCF7 > 100 µM | SK-MEL-28 > 100 µM | MDA-N > 100 µM

CCOC(=O)CCC(NC(=O)c1ccc(Oc2nc3ccc(C(F)(F)F)cc3nc2-c2ccccc2)cc1)C(=O)OCC (stereo not given)
inactive: UO-31 20.6 µM | NCI-H522 9.57 µM | M14 67.6 µM | T47D > 42.2 µM | CCRF-CEM > 100 µM | RXF 393 15.7 µM | SF-295 12.2 µM | HCC 2998 > 100 µM | RPMI-8226 > 100 µM | NCI/ADR-RES 15.5 µM | SK-OV-3 15 µM | HT-29 5.15 µM | ACHN 5.61 µM | SK-MEL-5 45.3 µM | TK-10 15.1 µM | MDA-MB-231 8.13 µM | MCF7 > 41.5 µM | SK-MEL-28 > 100 µM | MDA-N > 100 µM

CC1=NN(c2cccc(Cl)c2)C2(C1=Cc1ccccc1)C(Cl)C(=O)N2c1nc2ccccc2s1 (stereo not given)
inactive: UO-31 16.3 µM | NCI-H522 16.8 µM | M14 20.4 µM | T47D 18.5 µM | CCRF-CEM 22.1 µM | RXF 393 14 µM | SF-295 20.2 µM | HCC 2998 17.3 µM | RPMI-8226 21.9 µM | NCI/ADR-RES 20.4 µM | SK-OV-3 20.9 µM | HT-29 19.8 µM | ACHN 16.7 µM | SK-MEL-5 13.3 µM | TK-10 37.8 µM | MDA-MB-231 18.4 µM | MCF7 22.2 µM | SK-MEL-28 27.2 µM | MDA-N 19.8 µM

CC(=O)NC(CS)C(=O)O (stereo not given)
inactive: UO-31 7640 µM | NCI-H522 6500 µM | M14 7360 µM | T47D 26900 µM | CCRF-CEM > 100 µM | RXF 393 21900 µM | SF-295 14600 µM | HCC 2998 20700 µM | RPMI-8226 746 µM | NCI/ADR-RES 22600 µM | SK-OV-3 44200 µM | HT-29 14700 µM | ACHN 16600 µM | SK-MEL-5 14500 µM | TK-10 10000 µM | MDA-MB-231 11300 µM | MCF7 25200 µM | SK-MEL-28 19900 µM | MDA-N > 100 µM

COc1ccc2cc(-c3nc(N)nc(N4N=C(C)CC4(C)C)n3)c(=N)oc2c1
inactive: UO-31 21.5 µM | NCI-H522 13.5 µM | M14 21.5 µM | T47D 15.4 µM | CCRF-CEM 16.1 µM | RXF 393 23.4 µM | SF-295 18.3 µM | HCC 2998 17.9 µM | RPMI-8226 16 µM | NCI/ADR-RES 31.4 µM | SK-OV-3 23.6 µM | HT-29 17.6 µM | ACHN 16.3 µM | SK-MEL-5 16.2 µM | TK-10 32.6 µM | MDA-MB-231 18.8 µM | MCF7 16.7 µM | SK-MEL-28 16.9 µM | MDA-N 17.1 µM

Cn1ccnc1CCc1ccc(F)cc1F
inactive: UO-31 > 100 µM | NCI-H522 > 100 µM | M14 > 100 µM | T47D > 100 µM | CCRF-CEM > 100 µM | RXF 393 > 100 µM | SF-295 > 100 µM | HCC 2998 > 100 µM | RPMI-8226 > 100 µM | NCI/ADR-RES > 100 µM | SK-OV-3 > 100 µM | HT-29 > 100 µM | ACHN > 100 µM | SK-MEL-5 > 100 µM | TK-10 > 100 µM | MDA-MB-231 > 100 µM | MCF7 > 100 µM | SK-MEL-28 > 100 µM | MDA-N > 100 µM

Cc1[nH]n(-c2nc3c(c(=O)[nH]2)CCC3)c(=O)c1CCO
inactive: UO-31 > 100 µM | NCI-H522 > 100 µM | M14 > 100 µM | T47D > 100 µM | CCRF-CEM > 100 µM | RXF 393 > 100 µM | SF-295 > 100 µM | HCC 2998 > 100 µM | RPMI-8226 > 100 µM | NCI/ADR-RES > 100 µM | SK-OV-3 > 100 µM | HT-29 > 100 µM | ACHN > 100 µM | SK-MEL-5 > 100 µM | TK-10 > 100 µM | MDA-MB-231 > 100 µM | MCF7 > 100 µM | SK-MEL-28 > 100 µM | MDA-N > 100 µM

O=C(NC(=O)c1c(F)cccc1F)Nc1cccc(Oc2ncc(Cl)cn2)c1
inactive: UO-31 > 100 µM | NCI-H522 20.3 µM | M14 > 51.2 µM | T47D > 35.2 µM | CCRF-CEM 47.1 µM | RXF 393 38.5 µM | SF-295 32.3 µM | HCC 2998 4.73 µM | RPMI-8226 > 94.8 µM | NCI/ADR-RES > 23.3 µM | SK-OV-3 19.3 µM | HT-29 4.59 µM | ACHN 99.3 µM | SK-MEL-5 > 100 µM | TK-10 > 100 µM | MDA-MB-231 > 71.6 µM | MCF7 > 100 µM | SK-MEL-28 > 100 µM | MDA-N 1.56 µM

CCc1nc(N)nc(N)c1-c1ccc(N2CCNCC2)cc1
inactive: UO-31 > 100 µM | NCI-H522 55.1 µM | M14 34.9 µM | T47D 57.7 µM | CCRF-CEM 33.7 µM | RXF 393 64.9 µM | SF-295 79.6 µM | HCC 2998 42.8 µM | RPMI-8226 > 56.1 µM | NCI/ADR-RES > 100 µM | SK-OV-3 > 100 µM | HT-29 38.6 µM | ACHN 51.3 µM | SK-MEL-5 19.8 µM | TK-10 > 100 µM | MDA-MB-231 > 93.3 µM | MCF7 47.3 µM | SK-MEL-28 > 78.5 µM | MDA-N 64.7 µM

CSc1nc2c(=O)n(-c3ccccc3)c(=S)n(-c3ccccc3)c2s1
inactive: UO-31 > 100 µM | NCI-H522 > 100 µM | M14 70 µM | T47D > 100 µM | CCRF-CEM > 100 µM | RXF 393 34.4 µM | SF-295 97.5 µM | HCC 2998 > 100 µM | RPMI-8226 > 100 µM | NCI/ADR-RES 85.1 µM | SK-OV-3 81.3 µM | HT-29 > 100 µM | ACHN 45.4 µM | SK-MEL-5 > 100 µM | TK-10 42.1 µM | MDA-MB-231 49.2 µM | MCF7 > 100 µM | SK-MEL-28 > 100 µM | MDA-N > 100 µM

O=C(C=P(c1ccccc1)(c1ccccc1)c1ccccc1)c1ccc(-c2cccs2)cc1
inactive: UO-31 3.48 µM | NCI-H522 3.35 µM | M14 2.57 µM | T47D 2.33 µM | CCRF-CEM 4.56 µM | RXF 393 3.11 µM | SF-295 4.17 µM | HCC 2998 2.83 µM | RPMI-8226 2.25 µM | NCI/ADR-RES 4.48 µM | SK-OV-3 5.66 µM | HT-29 3.75 µM | ACHN 3.73 µM | SK-MEL-5 2.17 µM | TK-10 3.08 µM | MDA-MB-231 9.79 µM | MCF7 3.41 µM | SK-MEL-28 3.41 µM | MDA-N 3.22 µM

S=C(Nc1cccc(C2(N3CCCCC3)CCCCC2)c1)Nc1cccc(C2(N3CCCCC3)CCCCC2)c1
inactive: UO-31 16.9 µM | NCI-H522 20.4 µM | M14 18.7 µM | T47D 19.5 µM | CCRF-CEM 13.6 µM | RXF 393 13.6 µM | SF-295 37.8 µM | HCC 2998 2.43 µM | RPMI-8226 10.6 µM | NCI/ADR-RES > 100 µM | SK-OV-3 > 100 µM | HT-29 19.4 µM | ACHN 23.9 µM | SK-MEL-5 17.7 µM | TK-10 2.69 µM | MDA-MB-231 15.6 µM | MCF7 31.3 µM | SK-MEL-28 17.9 µM | MDA-N 17.6 µM

Clc1cc2nc(C3CCCO3)[nH]c2cc1Cl (stereo not given)
inactive: UO-31 16.9 µM | NCI-H522 20.4 µM | M14 72.9 µM | T47D 46.2 µM | CCRF-CEM 68.4 µM | RXF 393 66.5 µM | SF-295 57.1 µM | HCC 2998 76.4 µM | RPMI-8226 72.8 µM | NCI/ADR-RES 43.5 µM | SK-OV-3 69.2 µM | HT-29 33.7 µM | ACHN > 100 µM | SK-MEL-5 35.9 µM | TK-10 > 100 µM | MDA-MB-231 > 100 µM | MCF7 29.2 µM | SK-MEL-28 78 µM | MDA-N 20.1 µM
